Data reported in patent US6110933A, “Amino acid derivatives and their use as phospholipase A2 inhibitor” (Fujisawa Pharmaceutical Co., Ltd., priority 1994, dated 2000).

Tests used:
PLA2 group II = test: Inhibition of PLA2 group II; type: biochemical; conditions: no concentration or figure given
PLA2 group I = test: Test on the inhibitory effect against phospholipase A2 (PLA2); type: biochemical; conditions: 83 ng/ml; PLA2 group I from porcine pancreas; preincubated with enzyme at 37° C. for 30 minutes; 5 μM [14C]phosphatidylcholine, pH 7.4
Protocol: Test on the inhibitory effect against phospholipase A2 (PLA2)
The substrate, [^14 C]phosphatidylcholine (L-3-phosphatidylcholine, 1-stearyl-2-[1-^14 C]arachidonyl, was dried under N2 gas and suspended in deionized water with a probe sonicater. The standard reaction mixture in a total volume of 800 μl contained Tris-HCl buffer (10 mM, pH 7.4), CaCl2 (5 mM) and 10 ng/ml enzyme, PLA2 group I (from porcine pancreas, 700 units/mg, Boehringer Mannheim Yamanouchi Co., Ltd.). The reaction was started by addition of 5 μM [^14 C]phosphatidylcholine (L-3-phosphatidylcholine, 1-stearyl-2-[1-^14 C]arachidonyl to the enzyme solution. Following incubation at 37° C. for 30 minutes, the reaction was terminated by addition of 2 ml of Dole's reagent^1). To determine the release of ^14 C-arachidonic acid from the phospholipid substrate, free fatty acid was extracted by the method of Natori et al^2), and counted in 8 ml of Liquifluor (Du Pont, New England Nuclear). On the inhibition assay, inhibitor or vehicle was preincubated with enzyme at 37° C. for 30 minutes. Each sample was dissolved in methanol (1.25% final). All data are the average of at least duplicate determinations corrected for none enzymatic hydrolysis. Data were expressed as percent inhibition.

Percent inhibition (PLA2 group I): 87.1%
SMILES: CCCCCCCCCCCCC[C@@H](CC(N)=O)OC(=O)[C@H](CCCC(=O)O)NC(=O)c1ccc(OC)cc1 [Example 9, (3S)-3-[(2S)-5-Carboxy-2-(p-methoxybenzoylamino)-pentanoyl]oxyhexadecanamide]
inhibition of PLA2 group II (PLA2 group II): inhibited
